Assay [1] deals with T1, human recombinant serotonin (5-Hydroxytryptamine) 5-HT2C receptor (Homo sapiens, UniProt P28335).
T1 construct: expressed in transfected cells; host or cells: Chinese hamster ovary (CHO-K1) cells
T1 sequence (P28335 33-458): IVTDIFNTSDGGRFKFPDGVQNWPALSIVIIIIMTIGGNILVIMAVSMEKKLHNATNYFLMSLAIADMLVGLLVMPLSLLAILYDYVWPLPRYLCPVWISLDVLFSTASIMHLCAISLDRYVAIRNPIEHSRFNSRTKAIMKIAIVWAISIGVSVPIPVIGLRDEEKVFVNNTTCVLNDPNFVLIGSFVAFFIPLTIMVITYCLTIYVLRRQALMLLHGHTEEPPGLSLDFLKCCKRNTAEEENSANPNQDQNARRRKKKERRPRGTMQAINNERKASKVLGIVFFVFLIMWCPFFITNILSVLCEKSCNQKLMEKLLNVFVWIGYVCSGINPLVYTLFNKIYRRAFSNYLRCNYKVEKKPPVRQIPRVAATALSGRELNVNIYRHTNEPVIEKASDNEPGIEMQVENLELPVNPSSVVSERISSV
As to the kind of experiment: Serotonin 5-HT2C radioligand binding assay. Conditions: [3H]Mesulergine specific binding, read-out: Percent Inhibition of ligand binding, Serotonin (1 μM ligand concentration) 5-HT2C. Here is the method:
To evaluate in radioligand binding assays the activity of compounds of the invention, human recombinant serotonin (5-Hydroxytryptamine) 5-HT2C receptor expressed in Chinese hamster ovary (CHO-K1) cells [Wolf, W. A. et al., J. Neurochem. (1997), 69:1449] in a modified Tris-HCl buffer (50 mM Tris-HCl, pH 7.4, 0.1% Ascorbic Acid, 10 μM Pargyline) was used. Compounds of the invention were incubated with 1 nM [^3H]Mesulergine for 60 min. at 25° C. Non-specific binding was estimated in the presence of 1 μM Mianserin. Receptor proteins were filtered and washed, the filters were then counted to determine [^3H]Mesulergine specifically bound. Compounds were screened at 1 μM or lower, using 1% DMSO as vehicle. Biochemical assay results are presented as the percent inhibition of specific binding in Table 4.

Assay [2] concerns the target human recombinant serotonin (5-Hydroxytryptamine) 5-HT7 receptor (Homo sapiens, UniProt P34969). As to the kind of experiment: Serotonin 5-HT7 radioligand binding assay. To be noted: [3H]LSD specific binding, read-out: Percent Inhibition of ligand binding, Serotonin (1 μM ligand concentration) 5-HT7. On the procedure:
To evaluate in radioligand binding assays the activity of compounds of the invention, human recombinant serotonin (5-Hydroxytryptamine) 5-HT7 receptor expressed in Chinese hamster ovary (CHO) cells [Roth, B. L. et al., J. Pharmacol. Exp. Ther. (1994), 268:1403; Shen, Y. et al., J. Biol. Chem. (1993), 268:18200] in a modified Tris-HCl buffer (50 mM Tris-HCl, pH 7.4, 10 mM MgCl2, 0.5 mM EDTA) was used. Compounds of invention were incubated with 5.5 nM [^3H] Lysergic acid diethylamide (LSD) for 2 h at 25° C. Non-specific binding was estimated in the presence of 10 μM Serotonin (5-HT). Receptor proteins were filtered and washed, the filters were then counted to determine [^3H]LSD specifically bound. Compounds were screened at 1 μM or lower, using 1% DMSO as vehicle. Biochemical assay results are presented as the percent inhibition of specific binding in Table 4.

The target of assay [3] is T2, rat adrenergic α1B receptor (Rattus norvegicus, UniProt P15823).
T2 construct: rat adrenergic α1B receptor obtained from Wistar Rat liver; from tissue; host or cells: Wistar Rat liver
T2 sequence (P15823 1-515): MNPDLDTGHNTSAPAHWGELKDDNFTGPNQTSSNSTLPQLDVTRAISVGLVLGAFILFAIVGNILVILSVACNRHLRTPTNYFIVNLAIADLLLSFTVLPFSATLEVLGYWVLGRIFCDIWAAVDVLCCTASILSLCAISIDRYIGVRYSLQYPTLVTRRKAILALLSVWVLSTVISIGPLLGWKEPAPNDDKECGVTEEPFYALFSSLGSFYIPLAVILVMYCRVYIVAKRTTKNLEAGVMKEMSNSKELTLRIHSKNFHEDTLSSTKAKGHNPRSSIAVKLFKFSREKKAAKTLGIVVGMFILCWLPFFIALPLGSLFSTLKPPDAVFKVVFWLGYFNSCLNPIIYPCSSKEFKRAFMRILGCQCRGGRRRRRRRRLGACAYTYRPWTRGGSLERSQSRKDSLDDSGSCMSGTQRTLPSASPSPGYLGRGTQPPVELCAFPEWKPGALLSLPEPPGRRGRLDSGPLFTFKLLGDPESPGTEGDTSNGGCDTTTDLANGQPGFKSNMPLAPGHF
The assay can be described thus: Adrenergic α1B radioligand binding assay. Conditions: [3H]Prozosin specific binding, read-out: Percent Inhibition of ligand binding, Adrenergic (0.1 μM ligand conc.) α1B. On the procedure: To evaluate in radioligand binding assays the activity of compounds of the invention, rat adrenergic α1B receptor obtained from Wistar Rat liver [Garcia-S′ainz, J. A. et al., Biochem. Biophys. Res. Commun. (1992), 186:760; Michel, A. D. et al., Br. J. Pharmacol. (1989), 98:883] in a modified Tris-HCl buffer (50 mM Tris-HCl buffer, pH 7.4, 0.5 mM EDTA) was used. Compounds of the invention were incubated with 0.25 nM [^3H]Prozosin for 60 min. at 25° C. Non-specific binding was estimated in the presence of 10 μM phentolamine. Receptor proteins were filtered and washed, the filters were then counted to determine [^3H]Prozosin specifically bound. Compounds were screened at 1 μM or lower, using 1% DMSO as vehicle. Compounds of the invention were tested in this biochemical assay. Biochemical assay results for representative compounds were presented as the percent inhibition of specific binding in Table 3.

The structures appear in SMILES notation.

Chain of human recombinant serotonin (5-Hydroxytryptamine) 5-HT7 receptor (P34969 whole entry): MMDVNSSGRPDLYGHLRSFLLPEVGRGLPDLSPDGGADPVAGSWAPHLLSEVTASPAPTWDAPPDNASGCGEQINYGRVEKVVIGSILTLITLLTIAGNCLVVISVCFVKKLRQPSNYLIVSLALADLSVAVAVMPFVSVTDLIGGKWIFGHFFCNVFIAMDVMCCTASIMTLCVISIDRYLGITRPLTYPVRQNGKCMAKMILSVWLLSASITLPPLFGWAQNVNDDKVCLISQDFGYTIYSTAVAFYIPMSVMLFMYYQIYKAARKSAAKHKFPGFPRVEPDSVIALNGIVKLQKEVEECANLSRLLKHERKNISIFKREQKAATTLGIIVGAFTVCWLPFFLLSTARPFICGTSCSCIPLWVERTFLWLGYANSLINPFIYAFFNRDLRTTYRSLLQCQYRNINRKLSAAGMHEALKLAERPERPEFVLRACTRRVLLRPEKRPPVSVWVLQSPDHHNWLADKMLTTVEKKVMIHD

Take `Cc1ccc2c(c1)c1c(n2C(=O)Cc2ccc(Cl)cc2)CN2CCC1C2` (stereo not drawn) [Compound 36]: the inhibition at 1 µM was determined as 89% in assay [1] and 75% in assay [2]. For the same compound, the inhibition at 0.1 µM in assay [3] was 4%.

For the compound `C/C(=C\n1c2c(c3cc(C)ccc31)C1CCN(C2)C1)c1ccccc1F` (stereo not drawn) [Compound 38], the inhibition at 1 µM was 93% in assay [1] and 95% in assay [2]. Also, in assay [3], the inhibition at 0.1 µM came to 29%.

On to `C/C(=C\n1c2c(c3cc(C)ccc31)C1CCN(C2)C1)c1ccncc1` (stereo not drawn) [Compound 44], for which the inhibition at 1 µM in assay [1] was 58%; in assay [2], 80%. Further, the inhibition at 0.1 µM in assay [3] was found to be 4%.

With `COc1ccc(/C(C)=C/n2c3c(c4cc(C)ccc42)C2CCN(C3)C2)cc1` (stereo not drawn) [Compound 45], the figures for the inhibition at 1 µM in assay [1] and in assay [2] were 98% and 93%, respectively. Further, in assay [3], the inhibition at 0.1 µM was 20%.

Values taken from patent US9271971B2, “Pyrido[3,4-B]indoles and methods of use” (Medivation Technologies, Inc., priority 2009, dated 2016).
